The source of these data is PubChem BioAssay (NCI).

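How tested: cells in 96-well plates exposed to compound for 48 hours at five concentrations. TGI denotes the concentration required for complete inhibition of growth.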

Some test systems named below: PC-3 prostate; CCRF-CEM leukemia; HS 578T breast; EKVX NSCLC; OVCAR-8 ovarian; BT-549 breast; MALME-3M melanoma; COLO 205 colon; K-562 leukemia; A549 NSCLC; U251 CNS.
Holding throughout (assay): NCI tumour cell line growth inhibition, 48 h

Turning to `O=C(O)CSCC(=O)Nc1ccc2cccc3c2c1CC3`, the TGI in the experiment on PC-3 prostate, with CCRF-CEM leukemia, in the experiment on HS 578T breast, in the experiment with EKVX NSCLC, in the experiment on OVCAR-8 ovarian and in the experiment on BT-549 breast was more than 100 µM each time. For the same molecule, the TGI in the experiment with MALME-3M melanoma, with COLO 205 colon, in the experiment on K-562 leukemia, in the experiment with A549 NSCLC and in the experiment on U251 CNS was more than 100 µM in each case.

In the case of `O=C(O)CSc1cc(-c2ccccc2)nc2ccccc12`, the TGI in the experiment on PC-3 prostate is more than 100 µM; in the experiment on HS 578T breast, 61.4 µM; in the experiment on EKVX NSCLC it was more than 100 µM; in the experiment on OVCAR-8 ovarian, more than 100 µM; with BT-549 breast it was more than 100 µM; with MALME-3M melanoma it was more than 100 µM. Moreover, the TGI with K-562 leukemia, in the experiment with A549 NSCLC and in the experiment with U251 CNS was more than 100 µM in each case.

In the case of `COC(=O)NCCc1[nH]nc2c1C(=O)C=C(Nc1ccccc1)C2=O`, the TGI with PC-3 prostate was more than 100 µM; in the experiment on CCRF-CEM leukemia it was 51.1 µM; in the experiment with HS 578T breast it was more than 100 µM; in the experiment with EKVX NSCLC, more than 100 µM; in the experiment on OVCAR-8 ovarian, 40.2 µM; in the experiment with BT-549 breast, more than 100 µM. For the same molecule, the TGI in the experiment on MALME-3M melanoma is 25.5 µM; in the experiment with COLO 205 colon, 37.5 µM; with K-562 leukemia, more than 100 µM; in the experiment on A549 NSCLC it was more than 100 µM; with U251 CNS, 42.2 µM.

Take `C/C(=N\Nc1ccc([N+](=O)[O-])cc1[N+](=O)[O-])c1ccc2ccccc2n1`: the TGI in the experiment on PC-3 prostate, with HS 578T breast, in the experiment on EKVX NSCLC, in the experiment on OVCAR-8 ovarian, in the experiment on BT-549 breast and with MALME-3M melanoma was more than 100 µM each time. Besides, the TGI in the experiment on COLO 205 colon, in the experiment on K-562 leukemia, with A549 NSCLC and in the experiment on U251 CNS was more than 100 µM in each case.

Take `OCCN(CCO)c1ccc2c(C(F)(F)F)cc(C(F)(F)F)nc2n1`: the TGI with PC-3 prostate, in the experiment on CCRF-CEM leukemia, in the experiment with HS 578T breast, in the experiment on EKVX NSCLC, in the experiment with OVCAR-8 ovarian and with BT-549 breast was more than 100 µM throughout. The TGI in the experiment on MALME-3M melanoma, with COLO 205 colon, in the experiment on K-562 leukemia, in the experiment on A549 NSCLC and with U251 CNS was more than 100 µM throughout.

Take `CC(=O)Oc1ccc2c(c1)c1c(=O)oc(N(C)C)nc1n2Cc1ccccc1`: the TGI in the experiment on PC-3 prostate, in the experiment on CCRF-CEM leukemia, in the experiment with HS 578T breast, in the experiment on EKVX NSCLC, with OVCAR-8 ovarian and in the experiment on BT-549 breast was more than 100 µM in each case. Besides, the TGI in the experiment with MALME-3M melanoma, in the experiment on COLO 205 colon, with K-562 leukemia, in the experiment on A549 NSCLC and in the experiment on U251 CNS was more than 100 µM in each case.

In the case of `NNC(=O)c1c(Cl)c(Cl)c(Cl)c(Cl)c1-c1nc2ccccc2[nH]1`, the TGI in the experiment with PC-3 prostate was more than 100 µM; in the experiment on CCRF-CEM leukemia, 54.2 µM; in the experiment on HS 578T breast, 86.8 µM; in the experiment with EKVX NSCLC, 45.3 µM; with OVCAR-8 ovarian, more than 100 µM; with BT-549 breast, 46.5 µM. Also, the TGI in the experiment with MALME-3M melanoma is 37.9 µM; in the experiment on COLO 205 colon it was 62 µM; in the experiment on K-562 leukemia it was 26 µM; in the experiment with A549 NSCLC, 45.7 µM.

Turning to `COc1cc(N=NN(C)C)c(C(C)c2c3cc(OC)c(OC)cc3cc[n+]2C)cc1OC` (centres undefined), the TGI in the experiment on PC-3 prostate, in the experiment on CCRF-CEM leukemia, with HS 578T breast, in the experiment on EKVX NSCLC, in the experiment with OVCAR-8 ovarian and with BT-549 breast was more than 100 µM each time. Moreover, the TGI in the experiment with MALME-3M melanoma was 87.5 µM; in the experiment on COLO 205 colon, 34.4 µM; in the experiment with K-562 leukemia it was more than 100 µM; in the experiment with A549 NSCLC, more than 100 µM; with U251 CNS, more than 100 µM.

Take `Cc1ccc2c(c1)NC(=O)CCSSCCC(=O)N2`: the TGI with PC-3 prostate, in the experiment on CCRF-CEM leukemia, in the experiment with HS 578T breast, in the experiment with EKVX NSCLC, in the experiment on OVCAR-8 ovarian and in the experiment on BT-549 breast was more than 100 µM in each case. In addition, the TGI in the experiment on MALME-3M melanoma, in the experiment on COLO 205 colon, with K-562 leukemia, with A549 NSCLC and in the experiment on U251 CNS was more than 100 µM throughout.

Regarding `CN1C(c2ccccc2)=CC(=O)C(O)=C(c2ccccc2)S1(=O)=O`, the TGI in the experiment with PC-3 prostate, in the experiment with CCRF-CEM leukemia, in the experiment on HS 578T breast, with EKVX NSCLC, in the experiment with OVCAR-8 ovarian and with BT-549 breast was more than 100 µM in each case. The TGI in the experiment on MALME-3M melanoma, in the experiment on COLO 205 colon, in the experiment with K-562 leukemia, with A549 NSCLC and with U251 CNS was more than 100 µM in each case.

As for `NC1C/C(=N\O)c2c(I)sc(I)c21` (centres undefined), the TGI in the experiment with PC-3 prostate was 31.6 µM; in the experiment with CCRF-CEM leukemia, more than 100 µM; with HS 578T breast, 48.9 µM; in the experiment with EKVX NSCLC, 40.4 µM; in the experiment with OVCAR-8 ovarian, 29.1 µM; with BT-549 breast it was 29.9 µM. In addition, the TGI with MALME-3M melanoma was 30.1 µM; with COLO 205 colon it was 40.6 µM; in the experiment with K-562 leukemia, more than 74.1 µM; with A549 NSCLC, 46.4 µM; in the experiment on U251 CNS, 37.4 µM.

Turning to `NC1CC(=O)c2csc(Br)c21` (centres undefined), the TGI with PC-3 prostate is 28.4 µM; with CCRF-CEM leukemia, more than 100 µM; in the experiment on HS 578T breast, 46.5 µM; in the experiment on EKVX NSCLC, 33.1 µM; with OVCAR-8 ovarian, 33.6 µM; in the experiment with BT-549 breast it was 26.5 µM. Moreover, the TGI in the experiment on MALME-3M melanoma was 33.9 µM; in the experiment on COLO 205 colon, more than 51.4 µM; in the experiment with K-562 leukemia, more than 82.4 µM; with A549 NSCLC, more than 100 µM; in the experiment with U251 CNS, more than 60 µM.

Consider `COc1ccc(Cc2nc3cc(C(F)(F)F)ccc3n2CCCN(C)C)cc1`, for which the TGI was 75 µM with PC-3 prostate; 44 µM with CCRF-CEM leukemia; 43.1 µM in the experiment with HS 578T breast; 65.4 µM in the experiment on EKVX NSCLC; more than 100 µM in the experiment with OVCAR-8 ovarian; 43.4 µM in the experiment with BT-549 breast. The TGI was 29.1 µM in the experiment with MALME-3M melanoma; 34.3 µM in the experiment on COLO 205 colon; 34.4 µM in the experiment with K-562 leukemia; 38.9 µM in the experiment with A549 NSCLC; 31.9 µM in the experiment with U251 CNS.
